From US20230312564A1, “AROMATIC RING-LACTAM COMPOUND, PREPARATION METHOD THEREFOR AND USE THEREOF” (SHANGHAI RINGENE BIOPHARMA CO., LTD., priority 2020, published 2023)

Assays:
ERK1/2 kinase = system: T1, ERK1/2 kinase; experiment: ERK1/2 kinase (Carna) inhibitory activity, Caliper mobility shift; format: biochemical
T1 construct: fused on or other part: Carna's ERK products carry a GST tag by vendor knowledge
How it was run: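 Compounds tested from 10 μM top concentration, 3-fold dilutions to 10 points, in duplicate, in 1× kinase buffer; Caliper mobility-shift readout.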

[1] = Liver microsomal metabolic stability, rat; format: in vitro ADME; conditions: liver microsomes, 0.5 mg/mL microsomes, 1 μM compound, NADPH, read-out: Liver microsomal stability T1/2
Method: (§1) The reaction was stopped with tinidazole-containing acetonitrile at 0 min, 5 min, 10 min and 30 min, respectively. After vortexing for 10 min and centrifuging at 15,000 rmp for 10 min, 50 μL of the supernatant was injected into a 96-well plate. The metabolic stability of the compound was calculated by determining the relative reduction of the drug, calculated as half-life T1/2.

[2] = Liver microsomal metabolic stability, dog; format: in vitro ADME; conditions: liver microsomes, 0.5 mg/mL microsomes, 1 μM compound, NADPH, read-out: Liver microsomal stability T1/2
Method: as §1

[3] = Liver microsomal metabolic stability, mouse; format: in vitro ADME; conditions: liver microsomes, 0.5 mg/mL microsomes, 1 μM compound, NADPH, read-out: Liver microsomal stability T1/2
Method: as §1

[4] = Liver microsomal stability, comparisons in words across species; format: in vitro ADME; conditions: different species; versus the comparative compounds
Method: as §1

CYP2C8 = CYP2C8 (Homo sapiens, UniProt P11712); experiment: Direct inhibition test (DI test) in human liver microsomes, CYP2C8; format: in vitro ADME
CYP2C19 = molecular target: T2, CYP2C19 (Homo sapiens, UniProt P33261); experiment: Direct inhibition test (DI test) in human liver microsomes, CYP2C19; format: in vitro ADME
T2 construct: A system containing 100 μL of human liver microsomes; from tissue; host or cells: human liver microsomes
Method: (§2) (2) Direct inhibition test (DI test): A system containing 100 μL of human liver microsomes (final concentration of 0.2 mg/mL) was subjected to a direct inhibition incubation, and the system contained NADPH (final concentration of 1 mM), 10 μM compound, positive inhibitor cocktail (10 μM ketoconazole, 10 μM quinidine, 100 μM sulfaphenazole, 10 μM α-naphthoflavone, 1,000 μM tranylcypromine), negative control (BPS of 0.1% DMSO), and mixed probe substrates (10 μM midazolam, 100 μM testosterone, 10 μM dextromethorphan, […], 100 μM phenacetin, 100 μM mephenytoin). After 20 minutes of incubation, the reaction was stopped. The relative activity of the enzyme was calculated by measuring the relative production of metabolites.

CYP3A4 = molecular target: T3, CYP3A4 (Homo sapiens, UniProt P08684); experiment: Direct inhibition test (DI test) in human liver microsomes, CYP3A4; format: in vitro ADME
T3 construct: A system containing 100 μL of human liver microsomes; from tissue; host or cells: human liver microsomes
Method: as §2

[5] = In-vivo pharmacokinetic parameters in mice; design: species or system Balb-c mice
How it was run: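 Male SD rats or Balb-c mice were dosed intravenously at 1 mg/kg or orally at 5 mg/kg. Jugular-vein plasma was sampled up to 24 h and analysed by LC-MS/MS. Non-compartmental analysis gave AUC, MRT, Cmax, Tmax, T1/2, Vd and oral bioavailability (F).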

[6] = system: Colo-205 transplanted tumor; experiment: Growth inhibition of nude mice Colo-205 transplanted tumor; format: in vivo
[7] = male, Balb-c, mouse, plasma, IV, 1 mg/kg
[8] = male, Balb-c, mouse, plasma, PO, 5 mg/kg

CYP2C8, sequence (P11712 whole entry): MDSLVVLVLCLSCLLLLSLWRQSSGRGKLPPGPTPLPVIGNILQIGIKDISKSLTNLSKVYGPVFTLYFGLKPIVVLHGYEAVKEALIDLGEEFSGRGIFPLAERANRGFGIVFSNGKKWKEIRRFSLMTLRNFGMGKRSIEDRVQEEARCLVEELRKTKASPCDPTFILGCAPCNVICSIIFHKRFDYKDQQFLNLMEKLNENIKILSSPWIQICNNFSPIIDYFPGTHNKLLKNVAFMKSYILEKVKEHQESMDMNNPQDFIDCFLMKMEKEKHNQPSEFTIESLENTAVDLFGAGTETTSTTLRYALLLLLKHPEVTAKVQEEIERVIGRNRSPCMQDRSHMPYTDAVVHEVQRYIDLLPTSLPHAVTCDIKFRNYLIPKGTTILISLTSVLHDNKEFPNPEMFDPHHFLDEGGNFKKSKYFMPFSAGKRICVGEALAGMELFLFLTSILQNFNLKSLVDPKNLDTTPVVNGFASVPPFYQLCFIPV
T2 sequence (P33261 whole entry): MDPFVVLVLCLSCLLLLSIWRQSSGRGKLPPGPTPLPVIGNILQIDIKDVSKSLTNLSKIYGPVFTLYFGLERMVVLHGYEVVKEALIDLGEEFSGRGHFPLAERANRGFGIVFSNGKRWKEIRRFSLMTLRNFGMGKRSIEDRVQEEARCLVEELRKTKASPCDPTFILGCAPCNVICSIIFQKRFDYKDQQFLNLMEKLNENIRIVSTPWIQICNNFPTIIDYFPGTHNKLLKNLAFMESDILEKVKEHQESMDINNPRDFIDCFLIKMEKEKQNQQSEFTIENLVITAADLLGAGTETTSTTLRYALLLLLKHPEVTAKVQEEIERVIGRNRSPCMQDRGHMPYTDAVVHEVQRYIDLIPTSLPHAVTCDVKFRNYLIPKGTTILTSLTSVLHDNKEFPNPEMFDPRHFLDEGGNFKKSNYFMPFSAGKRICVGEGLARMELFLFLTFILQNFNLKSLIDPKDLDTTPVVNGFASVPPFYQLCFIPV
T3 sequence (P08684 whole entry): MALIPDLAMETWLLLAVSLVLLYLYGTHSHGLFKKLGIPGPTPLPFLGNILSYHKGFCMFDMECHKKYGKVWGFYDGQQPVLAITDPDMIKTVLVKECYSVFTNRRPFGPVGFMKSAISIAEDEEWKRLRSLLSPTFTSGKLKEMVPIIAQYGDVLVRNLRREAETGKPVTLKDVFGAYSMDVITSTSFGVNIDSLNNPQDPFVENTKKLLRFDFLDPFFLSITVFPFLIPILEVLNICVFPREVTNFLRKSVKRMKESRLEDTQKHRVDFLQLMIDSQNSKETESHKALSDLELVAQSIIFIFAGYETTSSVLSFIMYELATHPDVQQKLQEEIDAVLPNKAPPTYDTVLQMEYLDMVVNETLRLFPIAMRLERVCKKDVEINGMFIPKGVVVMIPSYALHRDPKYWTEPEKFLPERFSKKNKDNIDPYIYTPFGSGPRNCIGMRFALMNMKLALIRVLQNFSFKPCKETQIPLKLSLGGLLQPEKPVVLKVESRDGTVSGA

COc1cc(F)cc([C@@H](CO)NC(=O)[C@@H](C)N2Cc3ccc(-c4nc(NC5CCOCC5)ncc4F)c(F)c3C2=O)c1 [Embodiment 40]
enzyme inhibitory activity (in words) (ERK1/2 kinase): extremely strong enzyme inhibitory activity
IC50 (ERK1/2 kinase; numeric values, read-out: ERK½ IC50): < 0.001 µM
half-life at 1 μM [1]: 14 min
half-life at 1 μM [2]: 73 min
half-life at 1 μM [3]: 13 min
stability of different kinds of liver microsomes (in words) [4]: significant advantages
IC50 at 20 min (CYP2C8): > 10 µM
IC50 (CYP2C19): > 10 µM
IC50 (CYP3A4): > 10 µM
F ([5]; PO 5 mg/kg vs IV 1 mg/kg): 59%
AUC(0-inf) [5, 7]: 0.368 µM·h
AUC(0-t) [5, 7]: 0.365 µM·h
MRT inf [5, 7]: 12 min
clearance [5, 7]: 78 mL/min/kg
half-life [5, 7]: 36 min
Vd ([5]; male, Balb-c, mouse, plasma, IV, 1 mg/kg, read-out: Vss): 1 L/kg
AUC(0-inf) [5, 8]: 1.09 µM·h
AUC(0-t) [5, 8]: 1.08 µM·h
Cmax [5, 8]: 1200 nM
Tmax [5, 8]: 18 min
half-life [5, 8]: 66 min
T/C ([6]; 25 mg/kg, bidx21, po): 7.2%
Initial weight (D0) ([6]; 25 mg/kg, bidx21, po): 19.5 g
Terminal weight (D21) ([6]; 25 mg/kg, bidx21, po): 21.0 g
Initial tumor volume ([6]; 25 mg/kg, bidx21, po): 97 ± 26 mm^3
Terminal tumor volume ([6]; 25 mg/kg, bidx21, po): 67 ± 14 mm^3
T/C ([6]; 50 mg/kg, qdx21, po): 23.2%
Initial weight (D0) ([6]; 50 mg/kg, qdx21, po): 21.4 g
Terminal weight (D21) ([6]; 50 mg/kg, qdx21, po): 23.2 g
Initial tumor volume ([6]; 50 mg/kg, qdx21, po): 98 ± 22 mm^3
Terminal tumor volume ([6]; 50 mg/kg, qdx21, po): 238 ± 130 mm^3
effect on the tumor weight (in words) ([6]; dose of 50 mg/kg or 25 mg/kg): no significant effect on the tumor weight
tumor growth of Colo-205 transplanted tumor nude mice (in words) ([6]; dose of 50 mg/kg or 25 mg/kg): significantly inhibited the tumor growth
